Source: patent US8653102B2, “Substituted 2-oxo- and 2-thioxo-dihydroquinoline-3-carboxamides as KCNQ2/3 modulators” (Gruenenthal GmbH, priority 2010, dated 2014)
Read-outs that look alike come from different tables or passages of the source.

Molecular target: T1, KCNQ2/3 channels (Homo sapiens, UniProt O43525+O43526)
T1 construct: expressed in transfected cells; host or cells: CHO-K1 cells kept under selection antibiotics
Assay: Fluorescence assay using a voltage sensitive dye (fluorimetry)
Format: cell-based
Experimental: Pharmacological Experiments Method I. Fluorescence Assay Using a Voltage Sensitive Dye (Fluorimetry)
[…] CHO-K1 cells expressing KCNQ2/3 channels are cultivated adherently at 37° C., 5% CO2 and 95% humidity in cell culture bottles (e.g. 80 cm^2 TC flasks, Nunc) with DMEM-high glucose (Sigma Aldrich, D7777) including 10% FCS (PAN Biotech, e.g. 3302-P270521) or alternatively MEM Alpha Medium (1×, liquid, Invitrogen, #22571), 10% fetal calf serum (FCS) (Invitrogen, #10270-106, heat-inactivated) and the necessary selection antibiotics.
Before being sown out for the measurements, the cells are washed with 1×DPBS buffer Ca^2+/Mg^2+-free (e.g. Invitrogen, #14190-094) and detached from the bottom of the culture vessel by using Accutase (PAA Laboratories, #L11-007) (incubation with Accutase for 15 min at 37° C.). The cell number is determined using a CASY™ cell counter (TCC, Schärfe System). Depending on the optimal density for each individual cell line, 20,000-30,000 cells/well/100 μl are seeded onto 96-well Corning™ CellBIND™ assay plates (Flat Clear Bottom Black Polystyrene Microplates, #3340). Freshly seeded cells are then left to settle for one hour at room temperature, followed by incubation for 24 hours at 37° C., 5% CO2 and 95% humidity.
The voltage-sensitive fluorescent dye from the Membrane Potential Assay Kit (Red™ Bulk format part R8123 for FLIPR, MDS Analytical Technologies™) is prepared by dissolving the contents of one vessel Membrane Potential Assay Kit Red Component A in 200 ml of extracellular buffer (ES buffer, 120 mM NaCl, 1 mM KCl, 10 mM HEPES, 2 mM CaCl2, 2 mM MgCl2, 10 mM glucose; pH 7.4). After removal of the nutrient medium, the cells are washed once with 200 μl of ES buffer, then loaded for 45 min at room temperature in 100 μl of dye solution in the dark.
Fluorescence measurements are carried out in a BMG Labtech FLUOstar™, BMG Labtech NOVOstar™ or BMG Labtech POLARstar™ instrument (525 nm excitation, 560 nm emission, Bottom Read mode). After incubation with the dye, 50 μl of the test substances in the desired concentrations, or 50 μl of ES buffer for control purposes, are applied to the wells of the assay plate and incubated for 30 min at room temperature while being shielded from light. The fluorescence intensity of the dye is then measured for 5 min and the fluorescence value F1 of each well is thus determined at a given, constant time. 15 μl of a KCl solution are then added to each well (final concentration of potassium ions 92 mM). The change in fluorescence intensity is subsequently monitored until all the relevant values have been obtained (mainly 5-30 min). At a given time post KCl application, a fluorescence value F2 is determined, in this case at the time of the fluorescence peak.
For calculation, the fluorescence intensity F2 is corrected for the fluorescence intensity F1, and the activity (ΔF/F) of the target compound on the potassium channel is determined as follows:
In order to determine whether a substance has agonistic activity,
A substance has an agonistic activity on the potassium channel if
[formula] increases dose dependently.
Calculations of EC50 and IC50 values are carried out with the aid of ‘Prism v4.0’ software (GraphPad Software™).

[1] = CHO-K1 cells expressing KCNQ2/3 channels
[2] = CHO-K1 cells expressing KCNQ2/3 channels, relative to retigabine (RTG) = 100%, read-out: Fluorimetry % efficacy (RTG = 100%)

Compound | EC50 [1] | Fluorimetry % efficacy (RTG = 100%) (CHO-K1 cells expressing KCNQ2/3 channels, relative to retigabine (RTG) = 100%) | Emax [2] | Emax (CHO-K1, read-out: Fluorimetry % efficacy (RTG = 100%))
2-[3-[(3-fluorophenyl)-methyl-carbamoyl]-4-methyl-2-oxo-7-(trifluoromethyl)-1H-quinolin-1-yl]-acetic acid methyl ester [Example 26] | 1010 nM | 108% | – | –
CCCCn1c(=O)c(C(=O)NCc2cccc(F)c2)c(C)c2ccc(C(F)(F)F)cc21 [Example 2, 1-butyl-N-[(3-fluorophenyl)-methyl]-4-methyl-2-oxo-7-(trifluoromethyl)-1H-quinoline-3-carboxylic acid amide] | 235 nM | – | 90% | –
CCn1c(=O)c(C(=O)NCc2cccc(F)c2)c(C)c2ccc(C(F)(F)F)cc21 [Example 5, 1-ethyl-N-[(3-fluorophenyl)-methyl]-4-methyl-2-oxo-7-(trifluoromethyl)-1H-quinoline-3-carboxylic acid amide] | 381 nM | – | 173% | –
CCn1c(=O)c(C(=O)NCc2ccc(F)cc2)c(C)c2ccc(C(F)(F)F)cc21 [Example 8, 1-ethyl-N-[(4-fluorophenyl)-methyl]-4-methyl-2-oxo-7-(trifluoromethyl)-1H-quinoline-3-carboxylic acid amide] | 401 nM | – | 175% | –
Cc1c(C(=O)NCc2cccc(F)c2)c(=O)n(C)c2ccccc12 [Example 9, N-[(3-fluorophenyl)-methyl]-1,4-dimethyl-2-oxo-1H-quinoline-3-carboxylic acid amide] | 5690 nM | – | 63% | –
COCCn1c(=O)c(C(=O)NCc2cccc(F)c2)c(C)c2ccccc21 [Example 10, N-[(3-fluorophenyl)-methyl]-1-(2-methoxy-ethyl)-4-methyl-2-oxo-1H-quinoline-3-carboxylic acid amide] | – | – | 22% | –
CCCn1c(=O)c(C(=O)NCc2cccc(F)c2)c(C)c2ccc(C(F)(F)F)cc21 [Example 11, N-[(3-fluorophenyl)-methyl]-4-methyl-2-oxo-1-propyl-7-(trifluoromethyl)-1H-quinoline-3-carboxylic acid amide] | 406 nM | – | 167% | –
Cc1c(C(=O)NCc2cccc(F)c2)c(=O)n(CCC(C)C)c2cc(C(F)(F)F)ccc12 [Example 12, N-[(3-fluorophenyl)-methyl]-4-methyl-1-(3-methyl-butyl)-2-oxo-7-(trifluoromethyl)-1H-quinoline-3-carboxylic acid amide] | – | – | 33% | –
Cc1c(C(=O)NCc2cccc(F)c2)c(=O)n(CCCC(C)C)c2cc(C(F)(F)F)ccc12 [Example 13, N-[(3-fluorophenyl)-methyl]-4-methyl-1-(4-methyl-pentyl)-2-oxo-7-(trifluoromethyl)-1H-quinoline-3-carboxylic acid amide] | – | – | 3% | –
COCCCn1c(=O)c(C(=O)NCc2cccc(F)c2)c(C)c2ccc(C(F)(F)F)cc21 [Example 14, N-[(3-fluorophenyl)-methyl]-1-(3-methoxy-propyl)-4-methyl-2-oxo-7-(trifluoromethyl)-1H-quinoline-3-carboxylic acid amide] | 992 nM | – | 61% | –
COCCOCCn1c(=O)c(C(=O)NCc2cccc(F)c2)c(C)c2ccc(C(F)(F)F)cc21 [Example 15, N-[(3-fluorophenyl)-methyl]-1-[2-(2-methoxy-ethoxy)-ethyl]-4-methyl-2-oxo-7-(trifluoromethyl)-1H-quinoline-3-carboxylic acid amide] | 2020 nM | – | 78% | –
Cc1c(C(=O)NCc2cccc(F)c2)c(=O)n(C)c2cc(C#N)ccc12 [Example 20, 7-cyano-N-[(3-fluorophenyl)-methyl]-1,4-dimethyl-2-oxo-1H-quinoline-3-carboxylic acid amide] | 1270 nM | – | 143% | –
Cc1c(C(=O)NCc2ccc(F)cc2)c(=O)n(C)c2cc(C#N)ccc12 [Example 21, 7-cyano-N-[(4-fluorophenyl)-methyl]-1,4-dimethyl-2-oxo-1H-quinoline-3-carboxylic acid amide] | 837 nM | – | 136% | –
COCCn1c(=O)c(C(=O)NCc2cccc(F)c2)c(C)c2ccc(C#N)cc21 [Example 22, 7-cyano-N-[(3-fluorophenyl)-methyl]-1-(2-methoxy-ethyl)-4-methyl-2-oxo-1H-quinoline-3-carboxylic acid amide] | 3140 nM | – | 102% | –
COCCn1c(=O)c(C(=O)NCc2ccc(F)cc2)c(C)c2ccc(C#N)cc21 [Example 23, 7-cyano-N-[(4-fluorophenyl)-methyl]-1-(2-methoxy-ethyl)-4-methyl-2-oxo-1H-quinoline-3-carboxylic acid amide] | 3890 nM | – | 105% | –
COCCn1c(=O)c(C(=O)NCCCC(C)(C)C)c(C)c2ccc(C(F)(F)F)cc21 [Example 24, N-(4,4-dimethyl-pentyl)-1-(2-methoxy-ethyl)-4-methyl-2-oxo-7-(trifluoromethyl)-1H-quinoline-3-carboxylic acid amide] | 167 nM | – | 231% | –
Cc1c(C(=O)NCCCC(C)(C)C)c(=O)n(C)c2cc(C(F)(F)F)ccc12 [Example 25, N-(4,4-dimethyl-pentyl)-1,4-dimethyl-2-oxo-7-(trifluoromethyl)-1H-quinoline-3-carboxylic acid amide] | 68 nM | – | 258% | –
COC(=O)CCn1c(=O)c(C(=O)N(C)c2cccc(F)c2)c(C)c2ccc(C(F)(F)F)cc21 [Example 27, 3-[3-[(3-fluorophenyl)-methyl-carbamoyl]-4-methyl-2-oxo-7-(trifluoromethyl)-1H-quinolin-1-yl]-propionic acid methyl ester] | – | – | 22% | –
Cc1c(C(=O)N(C)c2cccc(F)c2)c(=O)n(CC(=O)O)c2cc(C(F)(F)F)ccc12 [Example 28, 2-[3-[(3-fluorophenyl)-methyl-carbamoyl]-4-methyl-2-oxo-7-(trifluoromethyl)-1H-quinolin-1-yl]-acetic acid] | – | – | 16% | –
Cc1c(C(=O)N(C)c2cccc(F)c2)c(=O)n(CCC(=O)O)c2cc(C(F)(F)F)ccc12 [Example 29, 3-[3-[(3-fluorophenyl)-methyl-carbamoyl]-4-methyl-2-oxo-7-(trifluoromethyl)-1H-quinolin-1-yl]-propionic acid] | – | – | 6% | –
CCC(COC)n1c(=O)c(C(=O)NCc2cccc(F)c2)c(C)c2ccc(C(F)(F)F)cc21 (stereo not shown) [Example 30, N-[(3-fluorophenyl)-methyl]-1-[1-(methoxymethyl)-propyl]-4-methyl-2-oxo-7-(trifluoromethyl)-1H-quinoline-3-carboxylic acid amide] | 193 nM | – | 133% | –
COCC(COC)n1c(=O)c(C(=O)NCc2cccc(F)c2)c(C)c2ccc(C(F)(F)F)cc21 [Example 31, N-[(3-Fluorophenyl)-methyl]-1-[2-methoxy-1-(methoxymethyl)-ethyl]-4-methyl-2-oxo-7-(trifluoromethyl)-1H-quinoline-3-carboxylic acid amide] | 80 nM | – | – | 46%
CCC(Cn1c(=O)c(C(=O)NCc2cccc(F)c2)c(C)c2ccc(C(F)(F)F)cc21)OC (stereo not shown) [Example 32, N-[(3-fluorophenyl)-methyl]-1-(2-methoxy-butyl)-4-methyl-2-oxo-7-(trifluoromethyl)-1H-quinoline-3-carboxylic acid amide] | – | – | 26% | –
Cc1c(C(=O)NCc2cccc(F)c2)c(=O)n(C)c2cc(OC(F)(F)F)ccc12 [Example 33, N-[(3-fluorophenyl)-methyl]-1,4-dimethyl-2-oxo-7-(trifluoromethyloxy)-1H-quinoline-3-carboxylic acid amide] | 386 nM | – | 138% | –
Cc1c(C(=O)NCc2cccc(F)c2)c(=O)n(C)c2cc(F)ccc12 [Example 34, 7-fluoro-N-[(3-fluorophenyl)-methyl]-1,4-dimethyl-2-oxo-1H-quinoline-3-carboxylic acid amide] | 3140 nM | – | 105% | –
